According to a melting point compilation (Tetko et al.):

| SMILES | melting point |
| --- | --- |
| Cc1nc(Cl)nc(C)c1Cc1ccccc1 | 42 to 44 °C |
| O=C(O)c1cc(-c2cccs2)n(-c2ccccc2)n1 | 193 to 195 °C |
| Cn1c(CO)nc2cc(Cl)ccc21 | 179 to 181 °C |
| CN(C)c1ncnc(Cl)c1N | 114 to 116 °C |
| O=[N+]([O-])c1cc(S(=O)(=O)Cl)ccc1Br | 53 to 55 °C |
| NNc1ncnc2sccc12 | 211 to 213 °C |
| Cc1cc(C(=O)O)nc(-c2ccc(Cl)cc2)n1 | 163 to 165 °C |
| NNC(=O)c1cccc(S(=O)(=O)N2CCOCC2)c1 | 140 to 142 °C |
| C1CC2OC1C1CNCC21 (stereo not drawn) | 53 to 55 °C |
| O=C(Nc1ccc(C(=O)O)c(O)c1)c1ccc(Cl)c(Cl)c1 | 272 to 274 °C |
| Nc1cc(S(=O)(=O)Nc2ccc(Cl)cc2)ccc1N1CCOCC1 | 55 to 58 °C |
| O=C(Cn1cc(C(=O)O)cn1)NC1CCCCC1 | 247 to 249 °C |
| Oc1cnc2cc(Cl)c(Cl)cc2n1 | 299 to 301 °C |
| O=C(O)Cc1cc(=O)n(C2CCS(=O)(=O)C2)[nH]1 (stereo not drawn) | 168 to 170 °C |
| Nc1nc(CCl)nc2sc3c(c12)CCCC3 | 174 to 176 °C |
| Clc1ccc2nccnc2n1 | 148 to 150 °C |
| O=c1cc[nH]c2c(Br)cccc12 | 173 to 175 °C |
| CC(C)(C)n1cc(C#N)cc1NC(=O)OCC(F)(F)F | 147 to 149 °C |
| Cc1ccc(C(=O)C(=O)c2ccccc2)cc1C | 63 to 65 °C |
| CCCCc1nc2cc(NC(C)=O)ccc2[nH]1 | 192 to 194 °C |
| COc1cccc(NC(=O)C=CC(=O)O)c1 | 151 to 153 °C |
| Cc1ccccc1-c1nc(C(=O)O)cs1 | 119 to 121 °C |
| CS(=O)(=O)CCC(=O)O | 100 to 102 °C |
| NNC(=O)c1ccc(F)cc1Br | 151 to 153 °C |

| SMILES | melting point |
| --- | --- |
| O=C(Nc1ccccc1C(=O)O)c1ccccc1Br | 201 to 203 °C |
| CS(=O)(=O)c1ccc(O)c(N)c1 | 155 to 157 °C |
| O=C1CCCc2c1[nH]c1ccccc21 | 169 to 171 °C |
| COc1ccc(-c2nn(-c3ccccc3)cc2C=O)cc1 | 135 to 137 °C |
| CCOC(=O)CCc1nnc(-c2ccc(Cl)cc2)o1 | 100 to 102 °C |
| CC(C)(Nc1ccc([N+](=O)[O-])cc1)C(=O)O | 167 to 169 °C |
| CC(C)c1cc(N)no1 | 64 to 66 °C |
| O=C1Nc2cc(Br)ccc2C1=O | 259 to 261 °C |
| O=C(O)C=CC(=O)Nc1ccc(F)c(Cl)c1 | 189 to 191 °C |
| COc1ccc(-c2cc(C(=O)NN)[nH]n2)cc1 | 205 to 220 °C |
| CC(NC(=O)CC(F)(F)F)C(=O)O (stereo not drawn) | 105 to 107 °C |
| N#Cc1c(SCC(=O)O)nc2c(c1-c1ccco1)CCCC2 | 209 to 211 °C |
| O=C(O)c1cocn1 | 129 to 131 °C |
| N#Cc1cc(N)ncc1Br | 184 to 186 °C |
| O=CC1=Cc2c(ccc3ccccc23)OC1 | 144 to 146 °C |
| COc1ccccc1NS(=O)(=O)c1cccc(C(=O)O)c1 | 156 to 158 °C |
| CC(=O)Nc1ccc(NS(C)(=O)=O)c(C(=O)O)c1 | 265 to 267 °C |
| Cn1nc(C(C)(C)C)c2cc(C(=O)O)cnc21 | 243 to 245 °C |
| COc1ccc(-c2nn(-c3ccccc3)cc2C(=O)O)cc1 | 244 to 246 °C |
| COc1ccc(S(=O)(=O)Cl)cc1Cl | 80 to 82 °C |
| COc1ccc(C=C[N+](=O)[O-])cc1Cl | 95 to 97 °C |
| COCC1(O)CCNCC1 | 54 to 56 °C |
| CC(=O)c1c[nH]c2cc(F)ccc12 | 222 to 224 °C |
| Cc1cc(C)c(N)c(Cl)n1 | 56 to 58 °C |

| SMILES | melting point |
| --- | --- |
| Cc1csc(=O)n1CCCC(=O)O | 97 to 99 °C |
| O=C(O)CSc1nnc(-c2ccccc2)o1 | 169 to 171 °C |
| COc1cccc(C(=O)NCC(=O)O)c1 | 78 to 80 °C |
| CCCCC1CCC(C(=O)CC#N)CC1 (stereo not drawn) | 52 to 54 °C |
| O=C(NCCc1ccc(O)cc1)c1ccc(Cl)cc1 | 168 to 170 °C |
| O=C1CCc2cc(Br)c(F)cc2N1 | 210 to 212 °C |
| CC(OCc1ccccc1)C(=O)O (stereo not drawn) | 51 to 53 °C |
| Cc1nn(-c2cccc(C(F)(F)F)c2)c2sc(C(=O)O)cc12 | 271 to 273 °C |
| CC(=O)CC(=O)c1ccc(Br)cc1 | 92 to 94 °C |
| Cc1ccc(-c2cnc(CCC(=O)O)o2)cc1C | 159 to 161 °C |
| Nc1ccc(F)cc1-c1nc(CCOc2ccccc2)no1 | 122 to 124 °C |
| CCOC(=O)c1cc(CC)sc1NC(=O)CCl | 74 to 76 °C |
| O=C(CSc1ccccc1C(=O)O)NCC1CCCCC1 | 118 to 120 °C |
| CC(C)(C)OC(=O)N1CCC(CC(=O)O)(C(=O)O)C1 (stereo not drawn) | 180 to 182 °C |
| Cc1cc(C(=O)O)ccc1S(=O)(=O)Cl | 197 to 199 °C |
| CC1(C)CCc2[nH]c3ccccc3c2C1 | 103 to 105 °C |
| CN(C)c1ccc(S(=O)(=O)N(C)C)cc1N | 143 to 145 °C |
| O=C(O)c1ccc(Oc2ccc(Cl)cn2)cc1 | 215 to 217 °C |
| Cc1cccn2c(=O)c(C(=O)O)cnc12 | 205 to 207 °C |
| CN(C)Cc1ccc(C(=N)N)cc1 | 124 to 126 °C |
| CCc1ccc(O)c(C(=O)O)c1 | 118 to 120 °C |
| c1cn2c(n1)NCCC2 | 104 to 106 °C |
| Brc1ccc(-c2ncno2)cc1 | 109 to 111 °C |
| Cc1ccc(C(=O)NC2CCNCC2)s1 | 163 to 165 °C |

| SMILES | melting point |
| --- | --- |
| COc1ccc(O)cc1C(C)=O | 78 to 80 °C |
| CCCN1C(=O)C(=O)c2cc(Br)ccc21 | 129 to 131 °C |
| O=S(=O)(c1ccc2c(c1)CCCN2)N1CCCC1 | 130 to 132 °C |
| O=C1CCOc2c1cc(Br)cc2[N+](=O)[O-] | 104 to 106 °C |
| Cn1c(=O)c2c(S)nc(C(C)(C)C)nc2n(C)c1=O | 143 to 145 °C |
| NC(=S)Cc1nc2ccccc2[nH]1 | 204 to 207 °C |
| N#CCC(=O)c1c(Cl)cccc1Cl | 63 to 65 °C |
| O=S1(=O)Nc2cccc3cccc1c23 | 175 to 177 °C |
| O=c1ccc2cc(S(=O)(=O)Cl)ccc2o1 | 117 to 119 °C |
| Nc1nnc(-c2ccsc2)s1 | 211 to 213 °C |
| Cc1nn(C)c(C)c1C(O)C(F)(F)F (stereo not drawn) | 140 to 142 °C |
| O=C(O)c1ccc(-c2nnc(-c3ccccc3)o2)cc1 | 299 to 301 °C |
| Cc1cc(C)cc(NC(=O)CCl)c1 | 141 to 143 °C |
| CCN(CC)C(=O)COc1ccc(C(C)=O)cc1 | 61 to 63 °C |
| O=C1NCCCN2CCCC12 (stereo not drawn) | 120 to 122 °C |
| O=C(CCl)NC(=O)NCC(F)(F)F | 154 to 156 °C |
| Cc1oc(N)c(C#N)c1C | 163 to 169 °C |
| O=C1NC(=O)N(CCC2=CCCCC2)C1=O | 127 to 129 °C |
| NC(=O)c1csc(Br)c1 | 142 to 144 °C |
| COC(=O)CCNc1nc2ccccc2o1 | 108 to 110 °C |
| O=C(O)CCCNc1nc2ccccc2s1 | 110 to 112 °C |
| NC(=O)C(Cl)c1ccc(Br)cc1 (stereo not drawn) | 164 to 166 °C |
| CC(C)Oc1ccc(CCC(=O)O)cc1 | 74 to 76 °C |
| O=C(O)c1cc(S(=O)(=O)NCCOc2ccccc2)ccc1Cl | 169 to 171 °C |

| SMILES | melting point |
| --- | --- |
| O=C(Nc1cccc2c1CCCN2)c1ccc(F)cc1 | 156 to 158 °C |
| COC(=O)c1cc(S(=O)(=O)N2CCOCC2)ccc1Cl | 74 to 76 °C |
| CCOc1oc(-c2ccccc2)nc1C(=O)O | 147 to 149 °C |
| O=C1CSc2ccncc2N1 | 203 to 205 °C |
| CC(Cl)C(=O)NC(=O)Nc1ccccc1F (stereo not drawn) | 135 to 137 °C |
| CNc1cccc([N+](=O)[O-])c1 | 65 to 67 °C |
| Cc1nc(N2CCCCC2)sc1C=O | 113 to 115 °C |
| N#Cc1ccc(OCC(=O)O)cc1 | 177 to 179 °C |
| COc1cc(NC(=O)C(C)C)c(C(=O)O)cc1OC | 216 to 218 °C |
| O=C(O)c1ccsc1C(=O)O | 268 to 270 °C |
| NC1CCCc2[nH]ccc21 (stereo not drawn) | 83 to 85 °C |
| Cc1n[nH]c(C(F)(F)Cl)c1C(=O)O | 260 to 262 °C |
| C#CCNS(=O)(=O)c1ccccc1 | 60 to 62 °C |
| O=C(O)C1C2CC3CC(C2)CC1C3 (stereo not drawn) | 121 to 123 °C |
| CCOC(=O)c1cc(Br)c(OC)c(S(=O)(=O)Cl)c1 | 62 to 64 °C |
| NC(=O)c1ccc(C=O)cc1 | 100 to 102 °C |
| Cc1nn(C)c(C)c1C(=O)C(N)=O | 182 to 184 °C |
| Cc1ccc(S(=O)(=O)N2CCC(N)CC2)cc1 | 105 to 109 °C |
| Cc1[nH]ncc1S(=O)(=O)Cl | 95 to 97 °C |
| O=C(O)c1cc(-c2ccc3c(c2)CCO3)no1 | 235 to 237 °C |
| Nc1cccc(-c2n[nH]c3c2CCC3)c1 | 168 to 170 °C |
| CCN(CC)c1ccc(-c2nnc(S)n2-c2ccccc2C)cc1 | 232 to 234 °C |
| O=C(NC1CCc2ccccc21)c1ccnc(F)c1 (stereo not drawn) | 121 to 123 °C |
| CNC1CCN(c2cc(OC)cc(OC)c2)C1=O (stereo not drawn) | 73 to 75 °C |

| SMILES | melting point |
| --- | --- |
| COC(=O)c1nccc(Cl)c1F | 49 to 51 °C |
| O=Cc1cnn(-c2ccc(F)cc2)c1 | 120 to 122 °C |
| NS(=O)(=O)c1cc(F)ccc1Br | 170 to 172 °C |
| O=C(Nc1ccc(O)cc1)c1ccc(Cl)cc1 | 246 to 248 °C |
| CC(N)c1nc(-c2ccc(Br)cc2)cs1 (stereo not drawn) | 77 to 79 °C |
| COC(=O)Cn1cnc2c(N)ncnc21 | 228 to 230 °C |
| Nc1cccc(C(=O)N2CCSCC2)c1 | 114 to 116 °C |
| CN(C)S(=O)(=O)c1ccc(CCl)o1 | 54 to 56 °C |
| CS(=O)(=O)Nc1cccc(OCCN)c1 | 134 to 136 °C |
| Cn1nc(C(=O)NN)c2ccccc2c1=O | 134 to 136 °C |
| Cc1nc(C(=O)N(C)C)ccc1C(=O)O | 136 to 138 °C |
| O=C1CN(c2ccccc2)C(=O)N1 | 190 to 192 °C |
| NS(=O)(=O)c1ccc(OCCC(=O)O)cc1 | 140 to 142 °C |
| CC(C)(C)OC(=O)N1CCN(C(=O)CN)CC1 | 95 to 97 °C |
| O=C(O)Cn1c(=O)n(C2=CCCCC2)c2ccccc21 | 145 to 147 °C |
| CC(=O)Oc1cccc(C(=O)O)c1 | 131 to 134 °C |
| COc1csc(C(=O)O)c1 | 167 to 169 °C |
| Cc1nc(-c2cccc(Br)c2)ccc1C(=O)O | 181 to 183 °C |
| Cc1cc(Cl)n2ncnc2n1 | 220 to 222 °C |
| O=C(O)C1CCN1Cc1ccccc1 (stereo not drawn) | 176 to 178 °C |
| COc1ccc(C(=O)N2CCCCCC2)cc1N | 133 to 135 °C |
| O=C(O)COc1ccc2ccccc2c1Br | 158 to 160 °C |
| Cc1cnc2ccccc2c1N | 139 to 141 °C |
